Source: patent publication US11851459B2, “Methods and uses of modulators of anaphase promoting complex (APC) activity for treating cancer” (University of Saskatchewan, priority 2018, dated 2023)
“Also recorded” adds a separate entry of the source.

Tests used:
APC (substrate HURP) = assay: APC substrate westerns, Tamoxifen resistant MCF7 cells; assay type: cell-based, human
Protocol: (§1) Parental MCF7 human breast cancer cells, or cells selected for resistance to Tamoxifen, were treated with 1 or 5 uM M2I-1. Tamoxifen resistant cells were also treated with both DOX and M2I-1. Cell viability was measured using Trypan Blue staining (3 rpts). B. Protein lysates were prepared from the cells used in A. The APC target HURP was measured using antibodies against HURP. C. Trypan Blue was used to measure viability of parental and DOX resistant OSW canine lymphoma cells pretreated with 1 or 5 μM M2I-1 (18 hrs), followed by 1 μM DOX (48 hrs). Parental cells were only treated with monotherapy (3 rpts). ND, no data. D. OSW matched cells treated with the APC activator M2I-1 were prepared for APC substrate westerns E. Quantification of western protein abundance (3 rpts).
(§2) Human MCF7 breast cancer cells selected for resistance to Tamoxifen were treated with the M2I-1 activator in culture.

[1] = tested on: MCF7 breast cancer cells selected for resistance to Tamoxifen; assay: Cell viability by Trypan Blue, Tamoxifen resistant MCF7 cells; assay type: cell-based, human
Protocol: as §1, §2

[2] = tested on: OSW dog lymphoma cells selected for chemotherapeutic resistance; assay: Cell viability by Trypan Blue, DOX resistant OSW cells; assay type: cell-based, canine; details: 1 or 5 μM 18 hrs then 1 μM DOX 48 hrs
Protocol: as §1, §2

MDA-MB-231 cells = assay: Scratch assay, migration of MDA-MB-231 cells; assay type: cell-based, human
Protocol: A. An equal number of MDA-MB-231 TNBC cells were grown to confluence in 6 well plates. The cells were then treated with increasing doses of metformin (0, 1, 5 and 10 mM) and a scratch was made in the cell lawn creating a void. At the times shown the number of cell that migrated into the void were counted. The experiment was repeated twice. B. WT MDA-MB-231 cells and cells stably expressing the C43-4 plasmid were grown as in A. Control cells were left untreated, with other cells treated with the DMSO control, 1 uM DOX or 2.5 uM M2I-1. A void was created in the cell lawn and the number of cells that entered the void were scored as above. This experiment was repeated 4 times. This experiment was also repeated 4 times in an independently generated stable C43-4 cell line with similar results. The error of the mean is shown. C. WT and MDA-MB-231 cells stably expressing the C2-4B peptide plasmid were used for the scratch assay as described above. D. WT and MDA-MB-231 cells stably expressing the C13-3 peptide plasmid were used for the scratch assay as described above. The experiments in C and D were only performed once.
Assays using WT and C43-4 expressing cells have been done 4 times. Assays using C13-3 and C2-4B cells have only been conducted once. Metformin treated cells have been used twice. For scratch assays, a scratch is made down a confluent plate of cells, leaving a void. The number of cells that migrate back into the void over time is determined.

[3] = tested on: patient derived xenografted (PDX) tumor; assay: Patient derived xenograft (4-28 PDX) triple negative breast cancer mouse model; assay type: in vivo
Description: A. In vivo study of M2I-1 impact on a human patient derived xenografted breast tumor (4-28 PDX). An increased dose of M2I-1 was given to mice harboring implanted 4-28 tumor fragments ([…] i.p. injection (treatment) versus mock (DMSO) day 1, with tumor size measured every other day. B. Western analysis of apoptosis (PARP cleavage—24 kDa band) and APC substrate abundance (Cyclin B) in liver and tumor of treated and control after sacrifice on Day 8.
(§3) A mouse model for growing patient derived breast tumor cells obtained from a patient with triple negative breast cancer was developed. This patient had developed resistance to Doxorubicin. Tumors growing in these mice grow rapidly. Mice growing the patient derived xenografted (PDX) tumor were injected with various amounts of M2I-1. […] Since the APC was activated in the canines tested in this study following treatment with metformin, it was asked if metformin can directly activate the APC. Reduced APC substrate Cyclin B levels following metformin treatment in human MCF7 breast cancer cells was observed, similar to that observed when MDF7 cells express the C43-4 plasmid (see below for more on this plasmid) (FIG. 21).

drug resistant lymphoma = assay: Canine model of drug resistant lymphoma, metformin adjunct therapy; assay type: in vivo
Protocol: Enrolled companion canines that presented to the Western College of Veterinary Medicine in Saskatoon with lymphoma that had failed CHOP therapy were enrolled in the study. Canine lymphoma is very common, almost always results in a drug resistant form, and is treated identically in humans and canines.
Each week tumor tissue was received to use for western determination of MDR markers and RNA microarrays.
One canine (canine 6) entered remission after failing all other treatment options. RNA was sampled from the MDR tumor, during metformin treatment, during tumor shrinkage and remission and during relapse and microarray analysis was performed.

[4] = tested on: multiple drug resistant breast cancer; details: cited from earlier work
APC (substrate Cyclin B) = assay: Cyclin B protein levels in MCF7 cells; assay type: cell-based, human; details: MCF7, 48 hrs; 1 mM metformin or transient transfection of peptide plasmid
Protocol: MCF7 breast cancer cells were treated with 1 mM metformin or transiently transfected with an APC activating peptide (C43-4) for 48 hrs, then harvested for assessment of Cyclin B protein levels. Cyclin B is an APC target.
as §3

apc10Δ cells = assay: C43-4 mutant peptides, spot dilution under temperature and UV stress, apc10Δ cells; assay type: cell-based, yeast; details: glucose or galactose
Protocol: The cells were exposed to 5 sec of UV from a UV box prior to incubation.
Expression of the WT and mutant peptides have reduced activity in apc10Δ cells (FIG. 12).
(§4) • 1. Cells were cultured overnight in Trp^− 2% glucose media • 2. The growth of the cells was determined by measuring the optical density (OD) of the cells at 600 nm (OD600) • 3. Cells were diluted to OD600 of 1 with fresh culture media • 4. 100 ul of each culture was pipetted into a well of a 96 well plate • 5. 10 ul of the each starting culture was pipetted into 90 ul of water in 4 additional wells to make a 10-fold serial spot dilution • 6. 5 ul from each serial dilution was spotted onto plates containing standard growth media with either 2% glucose or 2% galactose using a multi-pipettor • 7. The plates were exposed to UV • 8. The plates were then placed at room temperature, 30, or 37° C. for 3-7 days • 9. The plates were scanned and saved as tiff files

Apc10 = biological target: T1, Apc10 (Saccharomyces cerevisiae, UniProt P53068); assay: Yeast 2-hybrid (Y2H) assay, Apc10 bait; assay type: binding
T1 construct: expressed in transfected cells; host or cells: yeast Y2H cells
T1 sequence (P53068 1-250): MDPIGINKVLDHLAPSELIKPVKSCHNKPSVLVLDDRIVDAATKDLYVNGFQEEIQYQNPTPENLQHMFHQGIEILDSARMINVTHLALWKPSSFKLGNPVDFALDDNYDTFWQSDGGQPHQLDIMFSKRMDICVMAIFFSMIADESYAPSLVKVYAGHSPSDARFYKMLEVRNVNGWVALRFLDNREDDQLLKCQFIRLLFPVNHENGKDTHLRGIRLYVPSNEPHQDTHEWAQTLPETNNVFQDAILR
Protocol: The reverse genetic screen utilized a yeast 2-hybrid (Y2H) protocol that selected for peptides that bound to the APC subunits Apc5 or Apc10 (see FIG. 8 for APC structure), to assess whether peptide-binding might modify APC function. Peptides that bound APC subunits were then assayed for those that suppressed APC mutant defects.
A library of random small peptides were cloned into a Thioredoxin (Trx) scaffold (see FIG. 9 for Trx-peptide structure) and expressed from a galactose-inducible Y2H prey vector in cells expressing the Apc10 bait vector (the modified Apc10 is still part of the complete APC complex). Six peptides that reproducibly interacted with the Apc10 bait construct in Y2H assays were identified (FIG. 1A) and were examined further. Cells will only grow in this assay if the peptide interacts with Apc5 or Apc10.
To identify peptides that bound to either Apc5 or Apc10 proteins using a yeast 2-hybrid (Y2H) screen, random small peptides were cloned into the TrxA scaffold (library provided by R. Geyer; FIG. 9) and expressed from a galactose-inducible Y2H prey vector in cells harboring either the APC5 or APC10 genes cloned into the Y2H bait vectors (APC5/APC10 bait constructs complement APC mutant defects).
Over 100 peptides that bound either Apc5 or Apc10 were recovered from millions screened. Six peptides that reproducibly interacted with the Apc5 or Apc10 bait construct in Y2H assays were examined further. Vectors expressing these 6 peptides were transformed into WT or APC mutant cells and assessed for ts growth.

wild type (WT) cells = assay: C43-4 mutant peptides, spot dilution under temperature and UV stress, WT cells; assay type: cell-based, yeast; details: low level expression on glucose
Protocol: The cells were exposed to 5 sec of UV from a UV box prior to incubation. The plus signs define growth compared to the empty vector control.
Residues 2, 7, 8, 10, 12 and 14 of peptide C43-4 are conserved with Htz1. All of these residues were mutated to alanine (FIG. 10). Peptides that contained mutations designed to determine which amino acids were required for function were generated. These mutant peptides were grown in wild type cells and in cells that had APC10 mutated, under temperature and UV stress conditions (FIGS. 10-12).
These cells were spot diluted on Trp^− plates and grown at the temperatures shown and/or exposed to ultraviolet (UV) irradiation (FIGS. 10-12). At low level expression on glucose, some of the mutations caused stress dependent phenotypes.
as §4, with “The plates were then placed at room temperature, 30, or 37° C. for 3-7 days • 9. The plates were scanned and saved as tiff files” left out

Molecule | levels of APC substrates (APC (substrate HURP)) | cell killing / toxicity in combination with chemotherapy (DOX) ([1]; Tamoxifen resistant MCF7) | growth / toxicity of activator alone ([1]; Tamoxifen resistant MCF7, 1 or 5 uM, 18 hrs) | cell killing by chemotherapy only in presence of activator [2] | metastatic potential / in vitro migration (MDA-MB-231 cells) | tumor growth ([3]; PDX TNBC in mice, i.p. injection, various amounts) | markers of APC substrates in the tumor ([3]; western, Cyclin B, Day 8) | APC substrate RNA levels (drug resistant lymphoma; canine 6, microarray) | markers of multiple drug resistance (drug resistant lymphoma; canine tumor tissue, westerns) | remission (drug resistant lymphoma; one canine (canine 6)) | multiple drug resistant breast cancer in vitro [4] | APC substrate Cyclin B protein levels (APC (substrate Cyclin B)) | activity / toxicity of peptide in apc10Δ cells (apc10Δ cells) | binds Apc10 in a yeast 2 hybrid assay (Apc10) | stress resistance (growth compared to empty vector) (wild type (WT) cells)
CC(C)CN(CC(C)C)c1ccc(C=C2C(=O)NC(=S)NC2=O)cc1[N+](=O)[O-] [M2I-1, Mad2 Inhibitor-1] | reduced the levels of several APC substrates tested | only in the presence of M2I-1 were cells killed; also recorded: enhances toxicity | did not impair the growth; also recorded: not toxic | observed | inhibit the in vitro migration | stalled in these cells in a dose-dependent manner | positive for APC activation |  |  |  |  |  |  |  | 
CN(C)C(=N)N=C(N)N [metformin] |  |  |  |  | blocked |  |  | reduced APC substrate RNA levels | reverse markers of multiple drug resistance | induced remission | prevents and reverses | Reduced |  |  | 
NGSSHNDARVRRLTLISRLC [C43-4-3, alanine at position 8 of C43-4] |  |  |  |  |  |  |  |  |  |  |  |  | remained toxic | binds Apc10 | increased stress resistance further
